Active and inactive are the calls of the source.
Assays:
Ephrin type-A receptor 4 = Ephrin type-A receptor 4 (Mus musculus, UniProt Q03137); test: EphA4 ligand-binding antagonists – biochemical, colorimetric, mouse EphA4, primary screen (AID 689); type: functional
Prothrombin = Prothrombin (Homo sapiens, UniProt P00734); test: Thrombin 1536 HTS Dose Response Confirmation. [Related pubchem assays: 1046 (Thrombin 1536 HTS; hits were confirmed in this assay)]; type: functional
cells [1] = type: functional, cell-based
[2] = biological target: T1, Trace amine-associated receptor 1 (Homo sapiens, UniProt Q96RJ0); test: Fluorescence-based cell-based high throughput dose response assay to identify agonists of the human trace amine associated receptor 1 (TAAR1).; type: functional
T1 sequence (Q96RJ0 whole entry): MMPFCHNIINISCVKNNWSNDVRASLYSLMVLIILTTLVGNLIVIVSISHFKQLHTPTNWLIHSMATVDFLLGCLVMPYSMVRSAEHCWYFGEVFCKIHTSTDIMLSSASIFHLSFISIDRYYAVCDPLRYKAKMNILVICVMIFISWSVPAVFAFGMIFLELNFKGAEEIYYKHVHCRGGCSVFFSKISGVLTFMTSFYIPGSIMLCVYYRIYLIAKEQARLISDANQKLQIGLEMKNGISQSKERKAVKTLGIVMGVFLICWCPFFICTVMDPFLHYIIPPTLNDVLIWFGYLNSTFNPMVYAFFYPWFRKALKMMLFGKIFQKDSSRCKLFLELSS

[3] = biological target: T1, Trace amine-associated receptor 1; test: Counterscreen for agonists of the human trace amine associated receptor 1 (hTAAR1): Fluorescence-based cell-based high throughput dose response assay to identify hTAAR1 agonist that also desensitize TAAR1 receptor response.; type: functional
cells [4] = type: functional, cell-based; remark: listed apart in the source
[5] = blockers of HIV-1 envelope-mediated cell-cell fusion – cherry-pick, dose response (AID 652057); type: functional, cell-based
[6] = viability loss in CEM21 cells – cell-based, CellTiter-Glo luminescence, cherry-picked, cytotoxicity control for viral fusion inhibitor project, dose response (AID 652042); type: functional;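 note: potency for signal decrease meaning cytotoxicity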
[7] = blockers of HIV-1 ZM109 envelope-driven cell-cell fusion – HeLa effector, CEM target cells, luciferase, cherry-pick, dose response (AID 652058); type: functional, cell-based;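 note: luciferase signal from HIV-1 Env mediated cell-cell fusion of effector and target cells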
[8] = off-target signal loss in HeLa-CEM21 co-culture – HeLa F-luc CTL cells, cherry-picked, counter-screen for HIV-1 Env fusion inhibitor project, dose response (AID 652040); type: functional, cell-based;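 note: potency for signal decrease marking cytotoxic or nonspecific inhibition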
[9] = HIV-1 AD8 envelope cell-cell fusion blockers – cherry-pick, dose response (AID 652062); type: functional, cell-based;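 note: luciferase signal from cell-cell fusion driven by HIV-1 clade B AD8 Env; potency is for inhibitors of fusion seen as a drop in luminescence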
[10] = biological target: T2, Voltage-gated N-type calcium channel alpha-1B subunit/Amyloid beta A4 precursor protein-binding family A member 1 (Homo sapiens, UniProt Q00975+Q02410); type: protein assay
T2 sequence (Q00975 whole entry): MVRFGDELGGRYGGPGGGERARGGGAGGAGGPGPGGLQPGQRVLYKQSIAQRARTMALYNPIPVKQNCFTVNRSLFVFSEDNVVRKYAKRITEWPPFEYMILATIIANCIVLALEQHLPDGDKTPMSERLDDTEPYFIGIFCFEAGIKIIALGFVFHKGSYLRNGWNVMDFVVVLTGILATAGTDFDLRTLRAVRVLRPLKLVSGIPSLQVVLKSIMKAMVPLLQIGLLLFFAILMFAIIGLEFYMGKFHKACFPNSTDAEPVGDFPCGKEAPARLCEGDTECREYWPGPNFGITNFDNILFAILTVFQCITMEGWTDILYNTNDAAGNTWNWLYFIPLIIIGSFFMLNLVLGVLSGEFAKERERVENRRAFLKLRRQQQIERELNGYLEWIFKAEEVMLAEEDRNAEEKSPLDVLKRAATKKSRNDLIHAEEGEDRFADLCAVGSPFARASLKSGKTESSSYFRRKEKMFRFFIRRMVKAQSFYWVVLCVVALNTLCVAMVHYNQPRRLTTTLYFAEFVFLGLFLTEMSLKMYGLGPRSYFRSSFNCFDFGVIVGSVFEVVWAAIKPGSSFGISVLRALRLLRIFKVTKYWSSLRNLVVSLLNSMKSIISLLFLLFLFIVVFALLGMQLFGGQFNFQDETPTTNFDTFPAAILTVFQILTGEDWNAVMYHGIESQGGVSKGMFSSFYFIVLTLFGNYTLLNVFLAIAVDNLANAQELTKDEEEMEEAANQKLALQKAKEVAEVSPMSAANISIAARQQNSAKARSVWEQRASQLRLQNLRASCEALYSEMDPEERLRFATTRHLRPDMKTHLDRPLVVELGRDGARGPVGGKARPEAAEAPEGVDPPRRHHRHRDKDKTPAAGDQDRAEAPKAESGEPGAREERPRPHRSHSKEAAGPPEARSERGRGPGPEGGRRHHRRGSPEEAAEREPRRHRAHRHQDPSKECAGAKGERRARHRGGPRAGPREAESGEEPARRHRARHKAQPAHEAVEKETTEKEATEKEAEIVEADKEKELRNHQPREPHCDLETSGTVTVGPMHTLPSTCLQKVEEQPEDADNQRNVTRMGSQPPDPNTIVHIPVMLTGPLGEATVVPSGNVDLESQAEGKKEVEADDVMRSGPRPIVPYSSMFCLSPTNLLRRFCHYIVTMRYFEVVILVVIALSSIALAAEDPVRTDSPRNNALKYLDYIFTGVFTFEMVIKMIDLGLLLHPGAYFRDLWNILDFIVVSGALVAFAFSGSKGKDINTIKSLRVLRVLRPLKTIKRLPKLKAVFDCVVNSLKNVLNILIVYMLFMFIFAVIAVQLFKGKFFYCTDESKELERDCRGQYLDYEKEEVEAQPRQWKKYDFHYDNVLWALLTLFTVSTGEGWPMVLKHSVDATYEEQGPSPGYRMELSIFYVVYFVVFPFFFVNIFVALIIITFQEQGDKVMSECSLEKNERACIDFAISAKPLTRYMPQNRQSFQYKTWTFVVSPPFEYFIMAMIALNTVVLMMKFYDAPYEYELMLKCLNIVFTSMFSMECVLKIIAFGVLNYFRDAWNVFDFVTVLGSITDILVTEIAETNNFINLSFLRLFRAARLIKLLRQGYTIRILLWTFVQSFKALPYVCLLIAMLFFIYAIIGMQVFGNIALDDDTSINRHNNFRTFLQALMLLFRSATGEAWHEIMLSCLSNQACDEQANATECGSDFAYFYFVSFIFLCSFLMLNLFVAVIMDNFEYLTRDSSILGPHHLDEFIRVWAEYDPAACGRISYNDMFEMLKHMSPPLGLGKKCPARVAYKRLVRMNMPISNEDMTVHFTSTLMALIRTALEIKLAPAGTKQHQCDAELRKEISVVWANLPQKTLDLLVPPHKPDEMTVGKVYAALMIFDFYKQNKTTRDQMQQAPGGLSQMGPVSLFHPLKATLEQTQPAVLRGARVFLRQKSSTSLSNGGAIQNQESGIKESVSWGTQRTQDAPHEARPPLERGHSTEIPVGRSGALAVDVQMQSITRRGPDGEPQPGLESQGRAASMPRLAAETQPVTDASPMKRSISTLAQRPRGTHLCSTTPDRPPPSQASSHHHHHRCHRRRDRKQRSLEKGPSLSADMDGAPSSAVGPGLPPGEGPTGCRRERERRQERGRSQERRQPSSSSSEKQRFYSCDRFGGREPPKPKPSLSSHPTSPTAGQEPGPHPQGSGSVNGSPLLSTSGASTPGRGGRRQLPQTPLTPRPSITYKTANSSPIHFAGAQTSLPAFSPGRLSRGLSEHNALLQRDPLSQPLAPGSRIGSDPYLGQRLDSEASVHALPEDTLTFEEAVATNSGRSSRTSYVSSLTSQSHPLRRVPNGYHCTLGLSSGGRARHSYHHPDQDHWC
T2 sequence (Q02410 whole entry): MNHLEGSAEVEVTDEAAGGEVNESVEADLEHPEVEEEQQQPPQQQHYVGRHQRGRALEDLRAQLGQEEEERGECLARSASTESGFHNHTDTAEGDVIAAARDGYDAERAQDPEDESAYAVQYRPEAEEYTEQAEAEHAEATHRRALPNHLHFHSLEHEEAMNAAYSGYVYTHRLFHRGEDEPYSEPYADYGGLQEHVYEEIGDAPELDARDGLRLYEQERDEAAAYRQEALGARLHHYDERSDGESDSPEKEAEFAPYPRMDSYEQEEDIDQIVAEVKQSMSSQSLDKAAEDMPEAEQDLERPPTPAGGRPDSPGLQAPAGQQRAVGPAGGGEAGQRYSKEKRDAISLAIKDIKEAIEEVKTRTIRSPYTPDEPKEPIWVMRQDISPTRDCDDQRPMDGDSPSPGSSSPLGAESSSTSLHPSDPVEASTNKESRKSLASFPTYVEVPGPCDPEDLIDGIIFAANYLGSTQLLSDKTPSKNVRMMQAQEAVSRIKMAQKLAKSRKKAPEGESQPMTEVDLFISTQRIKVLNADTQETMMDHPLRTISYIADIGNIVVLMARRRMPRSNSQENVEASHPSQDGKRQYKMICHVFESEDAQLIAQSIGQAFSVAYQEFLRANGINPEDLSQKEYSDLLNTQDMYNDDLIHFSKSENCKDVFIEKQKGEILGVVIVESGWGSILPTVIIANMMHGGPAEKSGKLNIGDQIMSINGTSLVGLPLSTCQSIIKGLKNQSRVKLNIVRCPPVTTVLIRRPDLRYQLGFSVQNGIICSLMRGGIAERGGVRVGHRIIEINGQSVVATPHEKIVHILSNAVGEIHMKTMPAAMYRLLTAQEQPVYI

[11] = biological target: T2, Voltage-gated N-type calcium channel alpha-1B subunit/Amyloid beta A4 precursor protein-binding family A member 1; type: protein assay; remark: listed apart in the source
[12] = biological target: T3, Polyadenylate-binding protein 1 (Homo sapiens, UniProt P11940); test: MLLE binding blockers, Cy5 peptide tracer – biochemical, fluorescence polarization, Cy5-PAM2 peptide, secondary, miRNA deadenylation inhibitor project, dose response (AID 602260); type: functional; settings: read-out: IC50_Mean
T3 sequence (P11940 whole entry, the tested form may be a part): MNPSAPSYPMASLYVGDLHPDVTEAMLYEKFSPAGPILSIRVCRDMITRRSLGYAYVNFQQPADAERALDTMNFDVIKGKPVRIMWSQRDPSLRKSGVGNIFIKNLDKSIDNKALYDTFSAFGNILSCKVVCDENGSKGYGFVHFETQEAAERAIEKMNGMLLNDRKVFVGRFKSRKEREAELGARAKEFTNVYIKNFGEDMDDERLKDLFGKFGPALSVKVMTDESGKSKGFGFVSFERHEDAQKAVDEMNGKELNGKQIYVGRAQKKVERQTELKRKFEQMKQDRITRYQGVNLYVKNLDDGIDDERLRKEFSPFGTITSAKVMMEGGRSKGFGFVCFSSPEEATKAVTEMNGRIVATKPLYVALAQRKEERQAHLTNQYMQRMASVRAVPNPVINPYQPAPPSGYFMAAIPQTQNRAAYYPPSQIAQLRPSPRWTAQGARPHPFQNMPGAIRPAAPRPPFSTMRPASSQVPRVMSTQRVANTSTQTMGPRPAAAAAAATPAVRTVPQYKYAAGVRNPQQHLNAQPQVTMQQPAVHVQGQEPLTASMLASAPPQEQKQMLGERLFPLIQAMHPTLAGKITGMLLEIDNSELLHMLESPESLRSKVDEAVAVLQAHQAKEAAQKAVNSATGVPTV

[13] = biological target: T3, Polyadenylate-binding protein 1; test: MLLE domain peptide-binding blockers, IC50 – biochemical, fluorescence polarization, FITC-PAM2 peptide, dose response (AID 602259); type: functional; settings: read-out: IC50_Mean
[14] = biological target: T4, Long-chain-fatty-acid--AMP ligase FadD28 (Mycobacterium tuberculosis, UniProt P9WQ59); test: Fluorescence polarization aasay to screen for inhibitors that compete for the binding of FadD28 to a bisubstrate Measured in Biochemical System Using Plate Reader - 2147-01_Inhibitor_Dose_CherryPick_Activity.; type: functional, Mycobacterium tuberculosis H37Rv
T4 sequence (P9WQ59 whole entry): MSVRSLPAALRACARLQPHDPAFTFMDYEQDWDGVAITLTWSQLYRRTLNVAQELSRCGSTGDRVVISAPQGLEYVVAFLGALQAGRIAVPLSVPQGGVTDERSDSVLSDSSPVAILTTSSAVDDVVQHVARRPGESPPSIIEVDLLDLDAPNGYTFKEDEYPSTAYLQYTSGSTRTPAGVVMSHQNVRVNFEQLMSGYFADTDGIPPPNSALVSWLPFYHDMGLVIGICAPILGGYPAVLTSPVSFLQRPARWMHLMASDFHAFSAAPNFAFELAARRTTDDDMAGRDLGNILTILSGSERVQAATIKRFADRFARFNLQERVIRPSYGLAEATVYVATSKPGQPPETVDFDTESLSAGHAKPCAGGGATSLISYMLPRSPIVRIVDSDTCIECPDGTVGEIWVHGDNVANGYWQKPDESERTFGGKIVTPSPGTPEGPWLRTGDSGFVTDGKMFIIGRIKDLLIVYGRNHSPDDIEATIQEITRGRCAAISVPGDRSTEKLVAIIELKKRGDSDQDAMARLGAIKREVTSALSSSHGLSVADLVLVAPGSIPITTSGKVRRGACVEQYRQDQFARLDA

[15] = biological target: DNA dC->dU-editing enzyme APOBEC-3A (Homo sapiens, UniProt P31941); test: A3A deaminase inhibition for selectivity – biochemical, dose response (AID 504722); type: functional
DNA dC->dU-editing enzyme APOBEC-3A, sequence (P31941 whole entry): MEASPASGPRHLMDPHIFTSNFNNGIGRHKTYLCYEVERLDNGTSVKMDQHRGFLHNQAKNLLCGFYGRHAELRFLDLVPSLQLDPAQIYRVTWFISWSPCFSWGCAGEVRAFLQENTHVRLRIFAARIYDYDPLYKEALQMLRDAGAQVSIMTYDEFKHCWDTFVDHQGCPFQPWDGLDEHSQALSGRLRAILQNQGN

[16] = biological target: Glucose-6-phosphate 1-dehydrogenase (Homo sapiens, UniProt P11413); test: inhibition of Homo sapiens G6PD, dose series – biochemical, fluorescence, selectivity assay for P. falciparum G6PD inhibitor project, dose response (AID 504792); type: functional
[17] = biological target: DNA dC->dU-editing enzyme APOBEC-3G (Homo sapiens, UniProt Q9HC16); test: Dose Response confirmation of small molecule APOBEC3G DNA Deaminase Inhibitors via a fluorescence-based single-stranded DNA deaminase assay. [Related pubchem assays (depositor defined):AID493012, AID493028]; type: functional

Ephrin type-A receptor 4, sequence (Q03137 whole entry): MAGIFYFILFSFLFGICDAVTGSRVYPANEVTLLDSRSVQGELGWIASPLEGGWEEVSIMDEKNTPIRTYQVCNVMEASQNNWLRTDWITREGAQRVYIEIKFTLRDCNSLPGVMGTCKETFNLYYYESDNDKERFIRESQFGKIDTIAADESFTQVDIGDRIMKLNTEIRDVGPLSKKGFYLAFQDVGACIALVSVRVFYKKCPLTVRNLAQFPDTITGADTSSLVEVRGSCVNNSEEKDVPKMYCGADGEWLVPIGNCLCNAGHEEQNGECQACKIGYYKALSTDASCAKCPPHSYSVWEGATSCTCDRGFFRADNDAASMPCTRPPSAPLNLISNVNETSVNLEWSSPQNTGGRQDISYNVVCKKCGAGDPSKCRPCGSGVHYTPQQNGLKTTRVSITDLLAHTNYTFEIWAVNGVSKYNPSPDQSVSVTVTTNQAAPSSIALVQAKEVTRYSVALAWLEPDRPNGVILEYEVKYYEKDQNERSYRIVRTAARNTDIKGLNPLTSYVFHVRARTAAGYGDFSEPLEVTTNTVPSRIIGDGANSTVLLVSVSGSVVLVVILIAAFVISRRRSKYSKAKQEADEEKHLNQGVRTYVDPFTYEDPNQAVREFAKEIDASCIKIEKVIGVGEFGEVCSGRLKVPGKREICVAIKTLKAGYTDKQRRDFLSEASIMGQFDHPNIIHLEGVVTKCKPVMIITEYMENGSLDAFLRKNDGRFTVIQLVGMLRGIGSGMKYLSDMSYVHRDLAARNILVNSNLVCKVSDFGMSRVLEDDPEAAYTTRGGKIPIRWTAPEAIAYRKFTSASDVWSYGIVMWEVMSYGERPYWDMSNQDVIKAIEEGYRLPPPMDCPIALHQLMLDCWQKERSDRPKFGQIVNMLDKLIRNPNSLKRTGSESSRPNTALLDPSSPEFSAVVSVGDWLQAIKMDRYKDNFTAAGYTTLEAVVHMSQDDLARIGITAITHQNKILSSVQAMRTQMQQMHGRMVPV

CCN(CC)C(=O)CSc1nc2cc(OC)c(OC)cc2c(=O)n1Cc1ccc(Cl)cc1
IC50 (Ephrin type-A receptor 4): > 100 µM (not active)

Nc1nc(-c2ccccc2)nn1C(=O)Cc1ccccc1
IC50 (Prothrombin): 1.51 µM (active)

Cc1ccc(SCC(=O)Nc2ccc(N3CCN(C)CC3)c(F)c2)c(C)c1
IC50 (cells [1]): > 29.9 µM (inactive) | EC50 [2]: 3.5 µM (active) | IC50 [3]: 5.55 µM (active) | EC50 (cells [4]): > 29.9 µM (inactive)

O=S(=O)(NCC(Nc1ccccc1)c1ccccc1)c1ccc(Cl)cc1 (centres undefined)
AC50 [5]: 2.48 µM (active) | AC50 [6]: 19 µM (active) | AC50 [7]: 2.15 µM (active) | AC50 [8]: 10.4 µM (active) | AC50 [9]: 34.8 µM (active)

CCOC(=O)C(NCCc1ccccc1F)(NC(C)=O)C(F)(F)F (centres undefined)
IC50 (cells [1]): > 29.9 µM (inactive) | EC50 [2]: 1.84 µM (active) | IC50 [3]: > 29.9 µM (inactive) | EC50 (cells [4]): > 29.9 µM (inactive)

N#CC1=C(N)N=C(S)C(C(N)=O)C1c1ccc([N+](=O)[O-])cc1 (centres undefined)
IC50 [10]: 5.63 µM (active) | IC50 [11]: > 50 µM (inactive) | IC50 [12]: > 66 µM (inactive) | IC50 [13]: > 66 µM (inactive)

C[C@H](NC(=O)c1ccccc1)C(=O)OCC(=O)c1c[nH]c2ccccc12
IC50 (cells [1]): > 29.9 µM (inactive) | EC50 [2]: 3.28 µM (active) | IC50 [3]: 7.13 µM (active) | EC50 (cells [4]): > 29.9 µM (inactive)

Cc1cc(C)c(CN2CCN(C(=O)Cn3ccc(NC(=O)OCc4ccccc4)nc3=O)CC2)c(C)c1
AC50 [6]: 26.8 µM (active) | AC50 [8]: > 70 µM (inactive) | AC50 [9]: 4.37 µM (active)

Cc1csc(NC(=O)CSc2nnc(NC(=O)NC(C)(C)C)s2)n1
AC50 [14]: > 100 µM (inactive)

CCC1=NN(C(=O)c2ccccc2Br)C(O)(c2ccc(Br)cc2)C1 (centres undefined)
AC50 [14]: > 100 µM (inactive)

Cc1cc(C)c2c(=O)n(CC(=O)Nc3cccc(F)c3)sc2n1
IC50 [10]: 8.62 µM (active) | IC50 [11]: > 50 µM (inactive) | IC50 [15]: > 100 µM (inactive) | IC50 [16]: 22.1 µM (inactive) | IC50 [17]: 4.35 µM (active)

Oc1nc2ccc(Cl)cc2c(-c2ccccc2)c1N1CCOCC1
IC50 (Prothrombin): > 50 µM (not active)
